Source: US20090149387A1, “Use of GLP-1 Peptides” (Novo Nordisk A/S, priority 1996, published 2009)
No end group written: not given here.

Tests used:
[1] = tested on: rats; details: Tang-Christensen et al. 1996, route not stated; cited from earlier work
[2] = tested on: Healthy human volunteers; assay: Effect of iv infused GLP-1(7-36)amide on food intake, satiety, hunger, fullness and appetite in normal human subjects (double-blind crossover); format: in vivo; details: iv infusion 50 pmol/(kg·h) 9.00-15.00, 20 healthy subjects, versus saline
From the text: Healthy human volunteers (20 subjects) were in a double-blind crossover trial given an iv infusion of 50 pmol/(kg·h) of GLP-1(7-36)amide or saline on separate, but otherwise identical experimental days. The infusion was started at 9.00 and lasted until 15.00. At 9.45 the subjects received a fixed amount of breakfast and at 14.15 they had lunch of an identical composition but ad libitum. The subjects rated their feeling of satiety, hunger, fullness and appetite on a visual analogue scale every half hour. The results are given below:
The energy intake of each subjects was measured. The intakes were 3.9 MJ with GLP-1 and 4.3 MJ with Saline resulting in a p-value of 0.009.

[3] = tested on: Mice; assay: Appetite suppression in mice by subcutaneous synthetic GLP-1(7-36)amide: Complan consumption (Example 4); format: in vivo; details: p<0.001
Procedure: The test method was as described in Example 3 except that the mice were pre-exposed to formula milk (Complan®—a nutritionally complete infant milk substitute) for one day, then fasted one day. On the test day, consumption of Complan® was measured for each mouse during a 10 min period.
Mice were tested for appetite suppression by subcutaneous injection of GLP-1(7-36)amide dissolved in phosphate buffered saline.

[4] = tested on: Mice; assay: Appetite suppression in mice: sucrose consumption measured immediately after intraperitoneal injection (Example 2); format: in vivo; details: 85 micrograms (equivalent to 3.4 mg/kg) intraperitoneally, tested immediately after injection, 10 minute period, versus vehicle, p-value 0.002
Procedure: Mice were deprived of their normal food for two days and given free access to a 20% sucrose solution on the first day of food deprivation. After the two day food deprivation period, the mice were injected intraperitoneally with 0.5 ml of a solution containing the test substance. Immediately after injection, individual mice were placed in one of eight 15 cm square test boxes with a stainless steel grid floor and a glass drinking tube which projected into the box. […] Consumption of the sucrose solution was measured over a 10 minute period by electronically recording the total amount of contact with the sucrose solution during the test session. The degree of appetite suppression produced by a given test substance was determined by statistical comparison of the mean duration of sucrose consumption by control (vehicle treated) mice with that of mice treated with a test substance. The degree of appetite suppression in a treated group of mice was expressed as percent difference between the test and control group's response duration means. […]

Question: For “GLP-1(1-36)amide (HDEFERHAEGTFTSDVSSYLEGQAAKEFIAWLVKGR-NH2; UniProt P01275 92-127, looked up, fragment) [GLP-1 fragment 1-36, C-terminal amide; literature result]”, which “Effect on food intake” value [1] is on record?
Answer: The value was “no effect on food intake”.

Question: With “GLP-1: literature GLP-1 of b7; b6: proglucagon fragment 72-108 commonly referred to as GLP-1(1-37) or just GLP-1” as the substance, how does the “Satiety (visual analogue scale rating)” value ([2]; p = 0.006) read?
Answer: The value was “GLP-1 > Saline, p = 0.006”.

Question: What about the “Appetite (visual analogue scale rating)” value ([2]; p = 0.007) of the same substance?
Answer: Its value is “GLP-1 < Saline, p = 0.007”.

Question: And the “Hunger (visual analogue scale rating)” value ([2]; p = 0.007)?
Answer: The value was “GLP-1 < Saline, p = 0.007”.

Question: What about the “Fullness (visual analogue scale rating)” value ([2]; p = 0.010) of the same substance?
Answer: Its value is “GLP-1 > Saline, p = 0.010”.

Question: For GLP-1(7-36)amide, which “Suppression of feeding (Complan consumption)” value ([3]; 1 mg/kg subcutaneous, 30 min after injection) is on record?
Answer: Its value is 45%.

Question: What about the “Maximum effect, suppression of feeding (Complan consumption)” value ([3]; 20 mg/kg subcutaneous (highest dose tested)) of the same substance?
Answer: Its value is 60%.

Question: What about the “Suppression of sucrose consumption” value [4] of the same substance?
Answer: The value was 60%.
